The record followed here is PubChem BioAssay (NCI).

Test systems include PC-3 prostate; MDA-MB-231 breast; NCI/ADR-RES ovarian; HS 578T breast; LXFL 529 NSCLC; DMS 273 small cell lung; P388 leukemia; SN12K1 renal; M19-MEL melanoma; P388/ADR leukemia; 786-0 renal; RXF-631 renal.
Holding throughout (test): NCI tumour cell line growth inhibition, 48 h

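All cell lines were grown in 96-well plates and treated with compound for 48 hours. TGI denotes the concentration required for complete inhibition of growth.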 Where only a bound is given, the exact number is not on record here.

Regarding `Cc1ccc(Nc2nc(NS(=O)(=O)c3cc(C(=O)Nc4ccc(Cl)cc4)c(Cl)cc3S)n[nH]2)cc1`, the TGI in the test with PC-3 prostate, in the test with MDA-MB-231 breast, in the test with NCI/ADR-RES ovarian and in the test on HS 578T breast was greater than 100 µM throughout.

Turning to `NC(=S)N/N=C1\c2ccccc2CCC1CCC1(O)CCc2ccccc2C1=O` (stereo not given), the TGI with PC-3 prostate was 88.7 µM; in the test with MDA-MB-231 breast it was greater than 100 µM; with NCI/ADR-RES ovarian, 79.1 µM; in the test on HS 578T breast, 63 µM.

Turning to `COc1ccc(-c2c3c(nc4nc(SC)nc(SC)c24)CCCC3)cc1OC`, the TGI in the test on PC-3 prostate is greater than 100 µM; in the test with MDA-MB-231 breast it was greater than 100 µM; in the test with HS 578T breast it was 86.3 µM.

In the case of `CCc1nnc(-c2nsc3ccccc23)s1`, the TGI in the test with LXFL 529 NSCLC and in the test on DMS 273 small cell lung was greater than 100 µM in each case.

As for `O=C(NN1C(=O)CSC1c1ccc(C(F)(F)F)cc1)c1ccncc1` (stereo not given), the TGI with P388 leukemia, with DMS 273 small cell lung, with NCI/ADR-RES ovarian, in the test with SN12K1 renal, in the test with M19-MEL melanoma and in the test on P388/ADR leukemia was greater than 100 µM each time.

Regarding `CC(c1ccccc1)/[N+]([O-])=C/c1ccccc1` (stereo not given), the TGI with LXFL 529 NSCLC, with DMS 273 small cell lung and in the test with M19-MEL melanoma was greater than 100 µM each time.

In the case of `CC(CCC(=O)O)C1CCC2C3C(O)CC4CC(O)CCC4(C)C3CC(O)C12C` (stereo not given), the TGI in the test with PC-3 prostate, in the test on MDA-MB-231 breast, with NCI/ADR-RES ovarian, in the test with 786-0 renal and with HS 578T breast was greater than 100 µM throughout.

In the case of `CN1CCN(c2cc(-c3cc4ccccc4o3)oc(=O)c2C#N)CC1`, the TGI in the test on LXFL 529 NSCLC, in the test with DMS 273 small cell lung and with RXF-631 renal was greater than 100 µM each time.
